Reference: patent US20030235877A1, “Conjugates of haptens to beta-lactam derivatives and their use for detecting and/or quantifying haptens in solution and device for implementation thereof” (priority 1996, published 2003)

Tests used:
[1] = target: T1, penicillin detector of the Beta-Star® Test (Bacillus licheniformis, UniProt P12287); experiment: Ka (apparent second-order rate constant for acyl enzyme formation), calculated using the penicillin detector of the Beta-Star Test; type: binding; conditions: Ka=k2/K
T1 construct: purchased UCB, Belgium (BetaSTAR kit)
T1 sequence (P12287 346-601): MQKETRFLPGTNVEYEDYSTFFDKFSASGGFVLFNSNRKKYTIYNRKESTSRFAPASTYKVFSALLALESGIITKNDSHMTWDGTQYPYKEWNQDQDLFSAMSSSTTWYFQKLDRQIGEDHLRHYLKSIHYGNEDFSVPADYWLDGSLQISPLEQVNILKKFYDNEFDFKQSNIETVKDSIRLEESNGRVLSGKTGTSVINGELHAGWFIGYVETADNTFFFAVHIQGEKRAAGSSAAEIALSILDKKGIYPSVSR
Excerpt: (§1) The particular mode of conjugation claimed in the present invention guarantees to maintain kinetic parameters (Km, Ki, kcat and Ka=k2/K, where Km is the enzyme Michaelis-Menten constant, Ki is the inhibitor-enzyme complex dissociation constant, kcat the catalytic constant and Ka the apparent second-order rate constant for acyl enzyme formation respectively) toward β-lactamases and penicillin detectors, which are essentially the same as those of common penicillins.
^□(Column 10): calculated using the penicillin detector of the Beta-Star® Test
The detector showing the best affinity for the progesterone benzylpenicillinate conjugate is the polypeptide included in the Beta-star® kit. This genetic engineering peptide has kept a very high affinity for benzylpenicillin but has no enzymatic activity. It is thus coupled to colored particles for allowing sensitive detection.

[2] = target: T2, β-lactamase of Enterobacter cloacae P99 (Enterobacter cloacae, UniProt P05364); experiment: Ki of conjugates, calculated using the β-lactamase of Enterobacter cloacae P99; type: biochemical
T2 construct: Class C β-lactamase as that extracted from Enterobacter cloacae P99; host or cells: Enterobacter cloacae P99 (enzyme described as extracted from this strain)
T2 sequence (P05364 21-381): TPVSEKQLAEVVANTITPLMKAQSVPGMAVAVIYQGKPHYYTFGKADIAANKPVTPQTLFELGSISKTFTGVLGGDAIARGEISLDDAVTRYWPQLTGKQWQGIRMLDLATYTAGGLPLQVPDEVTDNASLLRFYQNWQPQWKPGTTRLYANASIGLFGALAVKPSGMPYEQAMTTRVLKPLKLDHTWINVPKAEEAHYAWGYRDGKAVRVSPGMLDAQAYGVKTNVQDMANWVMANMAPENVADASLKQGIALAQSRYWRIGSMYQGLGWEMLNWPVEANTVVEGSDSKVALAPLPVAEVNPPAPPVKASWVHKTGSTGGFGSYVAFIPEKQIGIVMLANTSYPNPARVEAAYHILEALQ
Excerpt: as §1
^x(Column 9): calculated using the β-lactamase of Enterobacter cloacae P99

[3] = system: CC1(C)SC2C(NC(=O)C(C(=O)OC3CCC4C5CCC6=CC(=O)CCC6C5CCC34C)c3ccccc3)C(=O)N2C1C(=O)O; experiment: purified protein, by the assay type; conditions: other: conjugate; type C β-lactamase P99
[4] = system: O=C(Cc1cccs1)N[C@@H]1C(=O)N2C(C(=O)O)=C(/C=C/c3ccc([N+](=O)[O-])cc3[N+](=O)[O-])CS[C@H]12; experiment: purified protein, by the assay type; conditions: other: reporter substrate; type C β-lactamase P99
[5] = system: CC(=O)C1CCC2C3CCC4=CC(=O)CCC4(C)C3C(OC(=O)c3ccc(-c4noc(C)c4C(=O)NC4C(=O)N5C4SC(C)(C)C5C(=O)O)cc3)CC12C; experiment: purified protein, by the assay type; conditions: other: conjugate; type C β-lactamase P99

| Compound | Ki [2] [nM] | further results |
| --- | --- | --- |
| CC(=O)C1CCC2C1CC(OC(C)Cc1ccc(CC(=O)NC3C(=O)N4C3SC(C)(C)C4C(=O)O)cc1)C1C3CCC(=O)C=C3CCC21 (stereo not drawn) [Conjugate 2] | – | Ka [1]: 4.6 ± 3.0 × 10^−6 L.M^−1 |
| Cc1onc(-c2ccc(C(=O)OC3CCC4C5CCc6cc(O)ccc6C5CCC34C)cc2)c1C(=O)NC1C(=O)N2C1SC(C)(C)C2C(=O)O (stereo not drawn) [Conjugate 4] | 24 ± 26 | – |
| Cc1onc(-c2ccc(C(=O)OC3CCC4C5CCC6=CC(=O)CCC6C5CCC34C)cc2)c1C(=O)NC1C(=O)N2C1SC(C)(C)C2C(=O)O (stereo not drawn) [Conjugate 5] | 18 ± 23 | – |
| Cc1onc(-c2ccc(C(=O)OC3CCC4C5CCC6=CC(=O)CCC6(C)C5CCC34C)cc2)c1C(=O)NC1C(=O)N2C1SC(C)(C)C2C(=O)O (stereo not drawn) [Conjugate 6] | 22 ± 19 | – |
| CC(=O)C1CCC2C3CCC4=CC(=O)CCC4(C)C3C(OC(=O)c3ccc(-c4noc(C)c4C(=O)NC4C(=O)N5C4SC(C)(C)C5C(=O)O)cc3)CC12C (stereo not drawn) [Conjugate 7] | 19 ± 27 | – |
| Cc1onc(-c2ccc(C(=O)NCCCCC(=O)OC3CCC4C5CCC6=CC(=O)CCC6C5CCC34C)cc2)c1C(=O)NC1C(=O)N2C1SC(C)(C)C2C(=O)O (stereo not drawn) [Conjugate 8] | 23 ± 18 | – |
| Cc1onc(-c2ccc(C(=O)NCCCCC(=O)OC3CCC4C5CCC6=CC(=O)CCC6(C)C5CCC34C)cc2)c1C(=O)NC1C(=O)N2C1SC(C)(C)C2C(=O)O (stereo not drawn) [Conjugate 9] | 17 ± 21 | – |
| Cc1onc(-c2ccc(OCCOC3CCC4C5CCc6cc(O)ccc6C5CCC34C)c(Cl)c2)c1C(=O)NC1C(=O)N2C1SC(C)(C)C2C(=O)O (stereo not drawn) [Conjugate 10] | 14 ± 17 | – |
| Cc1onc(-c2ccc(OCCOC3CCC4C5CCC6=CC(=O)CCC6C5CCC34C)c(Cl)c2)c1C(=O)NC1C(=O)N2C1SC(C)(C)C2C(=O)O (stereo not drawn) [Conjugate 11] | 12 ± 14 | – |
| Cc1onc(-c2ccc(OCCOC3CCC4C5CCC6=CC(=O)CCC6(C)C5CCC34C)c(Cl)c2)c1C(=O)NC1C(=O)N2C1SC(C)(C)C2C(=O)O (stereo not drawn) [Conjugate 12] | 15 ± 16 | – |
| CC(=O)C1CCC2C3CCC4=CC(=O)CCC4(C)C3C(OCCOc3ccc(-c4noc(C)c4C(=O)NC4C(=O)N5C4SC(C)(C)C5C(=O)O)cc3Cl)CC12C (stereo not drawn) [Conjugate 13] | 20 ± 21 | – |
| Cc1onc(-c2ccc(C(=O)NCCCOC3CCC4C5CCc6cc(O)ccc6C5CCC34C)cc2)c1C(=O)NC1C(=O)N2C1SC(C)(C)C2C(=O)O (stereo not drawn) [Conjugate 14] | 18 ± 23 | – |
| Cc1onc(-c2ccc(C(=O)NCCCOC3CCC4C5CCC6=CC(=O)CCC6C5CCC34C)cc2)c1C(=O)NC1C(=O)N2C1SC(C)(C)C2C(=O)O (stereo not drawn) [Conjugate 15] | 28 ± 22 | – |
| Cc1onc(-c2ccc(C(=O)NCCCOC3CCC4C5CCC6=CC(=O)CCC6(C)C5CCC34C)cc2)c1C(=O)NC1C(=O)N2C1SC(C)(C)C2C(=O)O (stereo not drawn) [Conjugate 16] | 26 ± 27 | – |
| CC(=O)C1CCC2C3CCC4=CC(=O)CCC4(C)C3C(OCCCNC(=O)c3ccc(-c4noc(C)c4C(=O)NC4C(=O)N5C4SC(C)(C)C5C(=O)O)cc3)CC12C (stereo not drawn) [Conjugate 17] | 21 ± 24 | – |
| Cc1onc(-c2ccc(OC(=O)CCC(=O)OC3CCC4C5CCC6=CC(=O)CCC6(C)C5CCC34C)cc2)c1C(=O)NC1C(=O)N2C1SC(C)(C)C2C(=O)O (stereo not drawn) [Conjugate 18] | 23 ± 19 | – |
| Cc1onc(-c2ccc(OC(=O)CCC(=O)OC3CCC4C5CCC6=CC(=O)CCC6C5CCC34C)cc2)c1C(=O)NC1C(=O)N2C1SC(C)(C)C2C(=O)O (stereo not drawn) [Conjugate 19] | 21 ± 24 | – |
| Cc1onc(-c2ccc(NC(=O)CCOC3CCC4C5CCC6=CC(=O)CCC6(C)C5CCC34C)cc2)c1C(=O)NC1C(=O)N2C1SC(C)(C)C2C(=O)O (stereo not drawn) [Conjugate 20] | 29 ± 27 | – |
| Cc1onc(-c2ccc(NC(=O)CCOC3CCC4C5CCC6=CC(=O)CCC6C5CCC34C)cc2)c1C(=O)NC1C(=O)N2C1SC(C)(C)C2C(=O)O (stereo not drawn) [Conjugate 21] | 30 ± 33 | – |
| Cc1onc(-c2ccc(NC(=O)CCOC3CCC4C5CCc6cc(O)ccc6C5CCC34C)cc2)c1C(=O)NC1C(=O)N2C1SC(C)(C)C2C(=O)O (stereo not drawn) [Conjugate 23] | 19 ± 21 | – |
| Cc1onc(-c2ccc(OCCC(=O)OC3CCC4C5CCC6=CC(=O)CCC6(C)C5CCC34C)cc2)c1C(=O)NC1C(=O)N2C1SC(C)(C)C2C(=O)O (stereo not drawn) [Conjugate 24] | 21 ± 26 | – |
| Cc1onc(-c2ccc(OCCC(=O)OC3CCC4C5CCC6=CC(=O)CCC6C5CCC34C)cc2)c1C(=O)NC1C(=O)N2C1SC(C)(C)C2C(=O)O (stereo not drawn) [Conjugate 25] | 28 ± 31 | – |
| CC(=O)C1CCC2C3CCC4=CC(=O)CCC4(C)C3C(OC(=O)CCOc3ccc(-c4noc(C)c4C(=O)NC4C(=O)N5C4SC(C)(C)C5C(=O)O)cc3)CC12C (stereo not drawn) [Conjugate 28] | 26 ± 26 | – |
| Cc1onc(-c2ccc(OCCC(=O)OC3CCC4C5CCc6cc(O)ccc6C5CCC34C)cc2)c1C(=O)NC1C(=O)N2C1SC(C)(C)C2C(=O)O (stereo not drawn) [Conjugate 29] | 21 ± 24 | – |
| CC1(C)SC2C(NC(=O)Cc3ccc(CC(=O)OC4CCC5C6CCc7cc(O)ccc7C6CCC45C)cc3)C(=O)N2C1C(=O)O (stereo not drawn) [Conjugate 30] | – | Ka [1]: 3.8 ± 2.9 × 10^−6 L.M^−1 |
| CC1(C)SC2C(NC(=O)Cc3ccc(CC(=O)OC4CCC5C6CCC7=CC(=O)CCC7(C)C6CCC45C)cc3)C(=O)N2C1C(=O)O (stereo not drawn) [Conjugate 31] | – | Ka [1]: 4.1 ± 3.2 × 10^−6 L.M^−1 |
| CC1(C)SC2C(NC(=O)Cc3ccc(CC(=O)OC4CCC5C6CCc7cc(O)ccc7C6CCC45C)cc3)C(=O)N2C1C(=O)O (stereo not drawn) [Conjugate 32] | – | Ka [1]: 4.8 ± 3.5 × 10^−6 L.M^−1 |
| type C β-lactamase from Enterobacter cloacae P99 (Enterobacter cloacae) | – | Km [3]: 74 nM; kcat [3]: 0.25 s⁻¹; Km [4]: 25 µM; kcat [4]: 780 s⁻¹; Km [5]: 1.7 nM; kcat [5]: 0.01 s⁻¹ |
